Test results published in PubChem BioAssay AID1918955 (Molecular Pharmacology Branch, DTP, NCI, 2023).
Several values for one entry are separate records, joined by “and”; a condition that tells them apart may be missing. Equal values may be shown once.

Tested on: NCI/ADR-RES complex spheroid viability
Experiment: Anticancer human tumor NCI/ADR-RES cell line growth inhibition;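 note: spheroids exposed to compounds for 7 days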;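 for viability, T/C: 100% = DMSO vehicle treated spheroids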
Details: for viability, T/C: stronger effect = lower value
How it was run: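 Multicellular complex spheroids of tumor cells with human endothelial cells (HUVEC) and mesenchymal stem cells; the LSD1 inhibitor iadademstat was combined with standard-of-care or investigational agents. Top concentration at or near clinical Cmax, half-log dilutions; final DMSO ≤0.25%.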

[1] = curve of first compound, second compound 0.1 µM
[2] = curve of first compound, second compound 0.316 µM
[3] = curve of first compound, second compound 1 µM
[4] = curve of first compound, second compound 3.16 µM
[5] = curve of first compound, second compound 10 µM

For Cn1ncnc1C1c2n[nH]c(=O)c3cc(F)cc(c23)NC1c1ccc(F)cc1 (centres undefined), the viability, T/C (compound 0.000316 µM) was 103% and 101%, the viability, T/C (compound 0.001 µM) was 109% and 102% and the viability, T/C (compound 0.00316 µM) was 106% and 103%. The viability, T/C (compound 0.01 µM) was 99.4% and 99.5%, the viability, T/C (compound 0.0316 µM) was 96.5% and 100% and the viability, T/C (compound 0.1 µM) was 105% and 101%. For the same molecule, the IC50 (curve of compound) was > 100 nM.

For COc1cc(C2c3cc4c(cc3C(OC3OC5COC(C)OC5C(O)C3O)C3COC(=O)C23)OCO4)cc(OC)c1O (centres undefined), the viability, T/C (compound 0.00949 µM) was 96.8% and 107%, the viability, T/C (compound 0.03 µM) was 100% and 104% and the viability, T/C (compound 0.0949 µM) was 96.4% and 104%. For the same molecule, the viability, T/C (compound 0.3 µM) was 95.8% and 105%, the viability, T/C (compound 0.949 µM) was 96.1% and 98.4% and the viability, T/C (compound 3 µM) was 93.1% and 90.2%. For the same molecule, the IC50 (curve of compound) was > 3000 nM.

In the case of Nc1ncn(C2CC(O)C(CO)O2)c(=O)n1 (centres undefined) + NC1CC1c1ccc(-c2cccc(O)c2)cc1, the IC50 [1] is reported as 49.3 nM, the IC50 [2] is reported as 49.1 nM and the IC50 [3] is reported as 38.4 nM. For the same molecule, the IC50 [4] was 46 nM, the IC50 [5] was 25.4 nM and the viability, T/C (second compound 0.1 µM, first compound 0.00316 µM) was 90.5%. The viability, T/C (second compound 0.1 µM, first compound 0.01 µM) was 79.4%, the viability, T/C (second compound 0.1 µM, first compound 0.0316 µM) was 61.5% and the viability, T/C (second compound 0.1 µM, first compound 0.1 µM) was 32.8%. For the same molecule, the viability, T/C (second compound 0.1 µM, first compound 0.316 µM) was 19.9%, the viability, T/C (second compound 0.1 µM, first compound 1 µM) was 13.6% and the viability, T/C (second compound 0.316 µM, first compound 0.00316 µM) was 93.3%. The viability, T/C (second compound 0.316 µM, first compound 0.01 µM) was 83%, the viability, T/C (second compound 0.316 µM, first compound 0.0316 µM) was 62% and the viability, T/C (second compound 0.316 µM, first compound 0.1 µM) was 31.3%. The viability, T/C (second compound 0.316 µM, first compound 0.316 µM) was 17.8%, the viability, T/C (second compound 0.316 µM, first compound 1 µM) was 12.5% and the viability, T/C (second compound 1 µM, first compound 0.00316 µM) was 88.5%. The viability, T/C (second compound 1 µM, first compound 0.01 µM) was 77.5%, the viability, T/C (second compound 1 µM, first compound 0.0316 µM) was 53.4% and the viability, T/C (second compound 1 µM, first compound 0.1 µM) was 30.4%. It also gave a viability, T/C (second compound 1 µM, first compound 0.316 µM) of 15.8%, a viability, T/C (second compound 1 µM, first compound 1 µM) of 10.8% and a viability, T/C (second compound 3.16 µM, first compound 0.00316 µM) of 94.6%. The viability, T/C (second compound 3.16 µM, first compound 0.01 µM) was 78.3%, the viability, T/C (second compound 3.16 µM, first compound 0.0316 µM) was 61% and the viability, T/C (second compound 3.16 µM, first compound 0.1 µM) was 32%. For the same molecule, the viability, T/C (second compound 3.16 µM, first compound 0.316 µM) was 15%, the viability, T/C (second compound 3.16 µM, first compound 1 µM) was 12.4% and the viability, T/C (second compound 10 µM, first compound 0.00316 µM) was 73.5%. The viability, T/C (second compound 10 µM, first compound 0.01 µM) was 63.7%, the viability, T/C (second compound 10 µM, first compound 0.0316 µM) was 45.5% and the viability, T/C (second compound 10 µM, first compound 0.1 µM) was 32.2%. It also gave a viability, T/C (second compound 10 µM, first compound 0.316 µM) of 16.1% and a viability, T/C (second compound 10 µM, first compound 1 µM) of 11.8%.

For COc1cc(C2c3cc4c(cc3C(OC3OC5COC(C)OC5C(O)C3O)C3COC(=O)C23)OCO4)cc(OC)c1O (centres undefined) + NC1CC1c1ccc(-c2cccc(O)c2)cc1, the IC50 [1] was > 3000 nM, the IC50 [2] was > 3000 nM and the IC50 [3] was > 3000 nM. For the same molecule, the IC50 [4] was > 3000 nM, the IC50 [5] was > 3000 nM and the viability, T/C (second compound 0.1 µM, first compound 0.00949 µM) was 104%. The viability, T/C (second compound 0.1 µM, first compound 0.03 µM) was 112%, the viability, T/C (second compound 0.1 µM, first compound 0.0949 µM) was 106% and the viability, T/C (second compound 0.1 µM, first compound 0.3 µM) was 101%. It also gave a viability, T/C (second compound 0.1 µM, first compound 0.949 µM) of 100%, a viability, T/C (second compound 0.1 µM, first compound 3 µM) of 90.4% and a viability, T/C (second compound 0.316 µM, first compound 0.00949 µM) of 113%. It also gave a viability, T/C (second compound 0.316 µM, first compound 0.03 µM) of 104%, a viability, T/C (second compound 0.316 µM, first compound 0.0949 µM) of 106% and a viability, T/C (second compound 0.316 µM, first compound 0.3 µM) of 104%. The viability, T/C (second compound 0.316 µM, first compound 0.949 µM) was 103%, the viability, T/C (second compound 0.316 µM, first compound 3 µM) was 92.6% and the viability, T/C (second compound 1 µM, first compound 0.00949 µM) was 102%. The viability, T/C (second compound 1 µM, first compound 0.03 µM) was 101%, the viability, T/C (second compound 1 µM, first compound 0.0949 µM) was 99.6% and the viability, T/C (second compound 1 µM, first compound 0.3 µM) was 96.5%. The viability, T/C (second compound 1 µM, first compound 0.949 µM) was 92.7%, the viability, T/C (second compound 1 µM, first compound 3 µM) was 92.4% and the viability, T/C (second compound 3.16 µM, first compound 0.00949 µM) was 98.5%. It also gave a viability, T/C (second compound 3.16 µM, first compound 0.03 µM) of 100%, a viability, T/C (second compound 3.16 µM, first compound 0.0949 µM) of 95.2% and a viability, T/C (second compound 3.16 µM, first compound 0.3 µM) of 95.7%. The viability, T/C (second compound 3.16 µM, first compound 0.949 µM) was 94.2%, the viability, T/C (second compound 3.16 µM, first compound 3 µM) was 84.9% and the viability, T/C (second compound 10 µM, first compound 0.00949 µM) was 84.6%. The viability, T/C (second compound 10 µM, first compound 0.03 µM) was 81%, the viability, T/C (second compound 10 µM, first compound 0.0949 µM) was 79.3% and the viability, T/C (second compound 10 µM, first compound 0.3 µM) was 80.2%. It also gave a viability, T/C (second compound 10 µM, first compound 0.949 µM) of 78.6% and a viability, T/C (second compound 10 µM, first compound 3 µM) of 71.1%.
